Patent US6710877B2, “Apparatus and methods for determining biomolecular interactions” (Corning Incorporated, priority 2001, dated 2004)
Where two headings read alike, the source gives them in different places.

How the values were obtained:
Type in all cases: binding
streptavidin [1] = target: T1, streptavidin (Streptomyces avidinii, UniProt P22629); assay: Dual compartment absorbance sensor: leaching of ligand from agarose gel containing streptavidin; details: for effective binding constant k from fit of equation 3 to concentration-time traces: 2.5% agarose gel, streptavidin, 8.4×10^−4 M ligand, 0.1×SSC buffer, 220 nm absorbance; for coefficient1 of fitting function f=coefficient1*Error_Function(coefficient2*time^1/2) / coefficient2 of fitting function f=coefficient1*Error_Function(coefficient2*time^1/2): average of traces, Marquardt-Levenberg fit
T1 construct: purchased Sigma Corp., St. Louis, Mo; B3763

streptavidin [2] = target: T1, streptavidin; assay: Three slot diffraction sensor: leaching of ligand out of the central sensing volume
anti-biotin = assay: Dual compartment absorbance sensor: leaching of ligand from agarose gel containing anti-biotin; details: anti-biotin instead of streptavidin, otherwise as Example 2

T1 sequence (P22629 25-183, species assumed): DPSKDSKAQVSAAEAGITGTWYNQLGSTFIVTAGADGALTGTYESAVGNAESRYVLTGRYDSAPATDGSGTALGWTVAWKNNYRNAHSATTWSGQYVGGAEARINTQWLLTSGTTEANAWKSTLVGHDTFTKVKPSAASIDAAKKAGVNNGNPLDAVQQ

| Structure (SMILES) | effective binding constant k from fit of equation 3 to concentration-time traces (streptavidin [1]) | coefficient1 of fitting function f=coefficient1*Error_Function(coefficient2*time^1/2) (streptavidin [1]) | coefficient2 of fitting function f=coefficient1*Error_Function(coefficient2*time^1/2) (streptavidin [1]) | leaching out of central sensing volume, peak-to-peak intensity difference versus time (FIG. 10) (streptavidin [2]; three samples each, 1×TBE buffer, qualitative) | binding affinities with anti-biotin in upstream compartment (FIGS. 7A and 7B) (anti-biotin) | factor by which binding constant k of biotin exceeds that of glutamine (streptavidin [1]; biotin versus glutamine curve-fits) | leaching out of central sensing volume, peak-to-peak intensity difference versus time (FIG. 10) (streptavidin [2]) |
| --- | --- | --- | --- | --- | --- | --- | --- |
| NC(=O)CC[C@H](N)C(=O)O [glutamine] | 0.00325 min⁻¹ | ~1.6 mM | 0.0570 | much slower than biotin leaching | indistinguishable |  |  |
| O=C(O)CCCC[C@@H]1SC[C@@H]2NC(=O)N[C@@H]21 [biotin] | 0.01186 min⁻¹ | ~1.5 mM | 0.1089 |  | indistinguishable | 4 | more activity in the biotin traces |
